According to patent US8350007B2, “Crystal structure of human mitoNEET protein” (The Regents of the University of California, priority 2007, dated 2013):

Columns and labels:
serum albumin = serum albumin (Homo sapiens, UniProt P02768); conditions: after patient ingestion, prior to cellular uptake; cited from earlier work
[1] = Blood glucose levels in diabetic ZDF rats treated with rosiglitazone; assay type: in vivo, rat; conditions: after three weeks of rosiglitazone 10 mg/kg by gavage
Description: Sixteen male ZDF rats were housed in filter cages, 2 or 3 animals per cage. Weight and blood glucose levels were measured every week. The blood glucose was measured at the fed state (07:30 am) and after 6 hours fast (1:[…]). The Animals were divided into two groups: a control group, and a rosiglitazone-treated group. Animals were treated daily for 3 weeks once a day, 5 times a week, with rosiglitazone, 10 mg/kg by gavage (0.7 ml) for the rosi-treated rats; or 0.7 ml saline for the control rats. After three weeks, liver, muscle and epididymal fat were collected and immediately frozen.
The average glucose blood level after fed of the control group was >240 mg/dl; in the rosiglitazone-treated rats some responded in a medium manner to the treatment; after three weeks of rosiglitazone treatment their glucose blood levels after fed was ˜120-140 mg/dl and some rats responded very well to rosiglitazone treatment and after three weeks their glucose blood levels after fed was ˜80 mg/dl.

serum albumin, sequence (P02768 25-609): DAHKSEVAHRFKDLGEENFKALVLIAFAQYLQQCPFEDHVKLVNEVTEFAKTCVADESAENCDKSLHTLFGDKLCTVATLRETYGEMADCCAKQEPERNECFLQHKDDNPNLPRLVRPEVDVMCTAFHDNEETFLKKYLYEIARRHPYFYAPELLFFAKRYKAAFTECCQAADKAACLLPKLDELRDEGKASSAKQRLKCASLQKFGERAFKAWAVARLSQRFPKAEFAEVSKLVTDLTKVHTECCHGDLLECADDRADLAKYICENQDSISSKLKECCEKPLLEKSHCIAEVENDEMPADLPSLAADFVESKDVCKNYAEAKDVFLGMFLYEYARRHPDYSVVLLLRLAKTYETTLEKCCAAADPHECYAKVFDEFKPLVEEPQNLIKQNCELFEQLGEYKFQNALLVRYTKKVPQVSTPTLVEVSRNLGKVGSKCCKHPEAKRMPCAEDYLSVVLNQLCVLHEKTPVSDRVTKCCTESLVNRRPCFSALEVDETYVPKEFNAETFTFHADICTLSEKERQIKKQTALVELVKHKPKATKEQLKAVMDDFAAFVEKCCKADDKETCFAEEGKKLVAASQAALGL

SMILES	binding to serum albumin (serum albumin)	glucose blood levels after fed ([1]; ZDF rats responding in a medium manner) [mg/dL]	glucose blood levels after fed ([1]; ZDF rats responding very well) [mg/dL]
CCc1ccc(CCOc2ccc(CC3SC(=O)NC3=O)cc2)nc1 (stereo not drawn) [pioglitazone]	largely bound to serum albumin		
CN(CCOc1ccc(CC2SC(=O)NC2=O)cc1)c1ccccn1 (stereo not drawn) [rosiglitazone]		120 to 140	~80
